SMILES strings stand for the structures.

The nature of series [1]: Weight increase of nail clippings during immersion in a lotion (Example 1). Further details: species or system Human. How it is done:
Solutions (lotions) were prepared, containing (v/v) 40% of distilled water, 40% of methyl ethyl ketone and 20% of isopropyl alcohol.
To these lotions were added salicylic acid, NAC, 1,4-dithiothreitol or mercaptoethylamine, in w/v concentrations as further specified in Table 1.
To distilled water were added glutathione, mercaptoethanol or urea, in w/v concentrations as further specified in Table 1.
(§1) Human nail clippings were immersed in the test and control lotions at ambient temperature and their weight increase expressed as % of their original weight.

Series [2] in a line: Comparison of sulfhydryl compounds: weight increase of nail clippings during immersion in a lotion (Example 10). Further details: species or system human. To be noted: 0.1 M in lotion of 50% v/v ethanol in distilled water. The procedure: as §1
The effects of 0.1 M of each of NAC (pH 2.3), 1,4-dithiothreitol (DTT, not claimed, pH 4.5) and ammonium thioglycolate (ATG, not claimed, pH 9.0), in a lotion consisting of 50% v/v ethanol in distilled water were compared, as in Example 1. The immersion period of the human nail clippings in the control and test lotions was 72 hours.

Series [3] is classed as in vitro ADME, human. How it is done:
On human nail discs of 6 mm diameter were mounted 1.5 cm pieces of tubing of 4 mm outer and 3 mm inner diameter, in each of which was poured 30 µl of one of the above lotions (n = 2 x 3). The free (ventral) surfaces of the nail discs were kept moist on a pad soaked in saline.
After 48 hours of incubation at 30°C and the discs were sectioned (50 µm) parallel to their dorsal surface, using a freeze-microtome. Radioactivity was measured in the separate sections, after which the amount of penetrated oxiconazole was calculated.
To lotions consisting of 50% v/v of ethanol in distilled water were added 0.1 M of NAC (pH 2.3), of 1,4-dithiothreitol (DTT, not claimed, pH 4.5) or of ammonium thioglycolate (ATG, not claimed, pH 9.0), as in Example 10. To all three solutions was also added 1% w/v of oxiconazole, containing a known amount (1 µCi per 30 µl) of radioactive ¹⁴C oxiconazole. These lotions were tested in an experimental set-up as in Examples 6 and 9.

Consider `O=C(O)c1ccccc1O` [Salicylic acid], for which the “Average % weight increase during immersion (hours)” value is 17% in series [1] (14 % w/v in lotion (water/methyl ethyl ketone/isopropyl alcohol), 1 hour, ambient temperature); 24% in series [1] (14 % w/v in lotion, 3 hours); 26% in series [1] (14 % w/v in lotion, 6 hours); 29% in series [1] (14 % w/v in lotion, 24 hours); 30% in series [1] (14 % w/v in lotion, 48 hours); 30% in series [1] (14 % w/v in lotion, 72 hours).
As to `NCCS` [Mercaptoethyl-amine, mercaptoethylamine], the “Average % weight increase during immersion (hours)” value is reported as 10% in series [1] (20 % w/v in lotion, 1 hour); 16% in series [1] (20 % w/v in lotion, 3 hours); 21% in series [1] (20 % w/v in lotion, 6 hours); 38% in series [1] (20 % w/v in lotion, 24 hours); 55% in series [1] (20 % w/v in lotion, 48 hours); 64% in series [1] (20 % w/v in lotion, 72 hours).
For `NC(N)=O` [Urea, urea], the “Average % weight increase during immersion (hours)” value was 22% in series [1] (50 % w/v in distilled water, 1 hour); 24% in series [1] (50 % w/v in distilled water, 3 hours); 32% in series [1] (50 % w/v in distilled water, 6 hours); 35% in series [1] (50 % w/v in distilled water, 24 hours); 36% in series [1] (50 % w/v in distilled water, 48 hours); 37% in series [1] (50 % w/v in distilled water, 72 hours).
`N[C@@H](CCC(=O)N[C@@H](CS)C(=O)NCC(=O)O)C(=O)O` [Glutathione, glutathione]: the “Average % weight increase during immersion (hours)” value in series [1] (10 % w/v in distilled water, 1 hour) was 30%; in series [1] (10 % w/v in distilled water, 3 hours) it was 32%; in series [1] (10 % w/v in distilled water, 6 hours) it was 33%; in series [1] (10 % w/v in distilled water, 24 hours), 44%; in series [1] (10 % w/v in distilled water, 48 hours), 58%; in series [1] (10 % w/v in distilled water, 72 hours), 61%.
Turning to `O[C@H](CS)[C@H](O)CS` (relative stereo) [1,4-Dithiothreitol, 1,4-dithiothreitol], the “Average % weight increase during immersion (hours)” value was found to be 21% in series [1] (20 % w/v in lotion, 1 hour); 32% in series [1] (20 % w/v in lotion, 3 hours); 38% in series [1] (20 % w/v in lotion, 6 hours); 51% in series [1] (20 % w/v in lotion, 24 hours); 50% in series [1] (20 % w/v in lotion, 48 hours); 58% in series [1] (20 % w/v in lotion, 72 hours). The “Average % weight increase after immersion during 72 hours” value in series [2] came out at 49%. Also, the “Average amount of oxiconazole (μg), Total” value in series [3] came out at 10.02 µg.
`O=C(O)CS` [Ammonium thioglycolate, ammonium thioglycolate]: in series [2], the “Average % weight increase after immersion during 72 hours” value was found to be 52%. Besides, in series [3], the “Average amount of oxiconazole (μg), Total” value was found to be 2.34 µg.

These data come from patent EP0440298A1, “Topical preparations for treating human nails” (BROCADES PHARMA B.V., priority 1990, dated 1991).
